Assay results as given in patent US7534763B2 (Bristol-Myers Squibb Company, priority 2004, dated 2009).
One block for each molecule: values may come before it. *1 amine or outer side, *2 acyl side, *3 side chain or, on linkers, in order; H or OH if unused. Where a SMILES comes first, the peptide text is derived from it. [ ]: non-standard residue; d: D form. The star is where a group is joined. ξ: configuration not given here. Ala(6-(2-MePh)pyridin-3-yl) = Cc1ccccc1-c1ccc(C[C@H](N)C(=O)O)cn1; Bip(2'-Et-4'-OMe) = CCc1cc(OC)ccc1-c1ccc(C[C@H](N)C(=O)O)cc1; Lactoyl(3-(imidazol-4-yl)) = O=C([C@@H](O)Cc1c[nH]cn1)*; X2 = Cc1ccccc1-c1ncc(C[C@H](N[*:1])C(=O)[*:2])cn1; Bip(2'-Me) = Cc1ccccc1-c1ccc(C[C@H](N)C(=O)O)cc1; αMePhe(2,6-F2) = C[C@](N)(Cc1c(F)cccc1F)C(=O)O; αMePhe(2-F) = C[C@](N)(Cc1ccccc1F)C(=O)O; ξαMePhe(2-F) = CC(N)(Cc1ccccc1F)C(=O)O; Thr(3ξ) = CC(O)[C@H](N)C(=O)O; αMeP = C[C@@]1(C(=O)O)CCCN1; dNMeA = CN[C@H](C)C(=O)O; ξαMeP = CC1(C(=O)O)CCCN1; Aib = CC(C)(N)C(=O)O; Moc = COC(=O)*

How the values were obtained:
Format in all cases: in vivo
[1] = Dog pharmacokinetic study (iv and sc, solution vehicles); settings: vehicle propylene glycol/pH 7.4 phosphate buffer (1:1); for AUC: male, beagle, dog, plasma, sc, 67 ug/kg, Table II, read-out: Exposure in dogs (sc@67 μg/kg)
Procedure: The pharmacokinetic parameters of the compound of SEQ ID NO:9 were determined in male beagle dogs (n=4, 14±1 kg). Following an overnight fast, each animal received the compound of SEQ ID NO:9 either as an intravenous bolus via femoral vein (67 μg/kg) or by subcutaneous injection given at near the shoulder blades (67 μg/kg). Each animal received both intravenous and subcutaneous doses with a one-week washout between doses following a crossover design. […] Serial blood samples were collected in EDTA-containing microcentrifuge tubes at predose, 0.083, 0.25, 0.5, 0.75, 1, 2, 4, 6, 8, 24, and 30 hours post-dose after intravenous administration; at predose, 0.25, 0.5, 0.75, 1, 2, 4, 6, 8, 24, and 30 hours post-dose after subcutaneous administration. Approximately 0.3 mL of blood was collected at each time point. Blood samples were immediately centrifuged at 4° C. The obtained plasma was frozen with dry ice and stored at −20° C. Plasma drug levels were determined using the LC-MS/MS assay described above.
Plasma samples from in vivo dog study were prepared for analysis by precipitating plasma proteins with two volumes of acetonitrile containing an internal standard. The samples were vortex mixed and removed the precipitated proteins by centrifugation. The resulting supernatants were transferred to a 96-well plate and 10 μL were injected for analysis. Samples were prepared with the Packard Multiprobe II and Quadra 96 Liquid Handling System.
The HPLC system consisted of two Shimadzu LC10AD pumps (Columbia, Md.), a CTC PAL autosampler (Leap Technologies, Switzerland). The column used was a YMC Hydrosphere C18 (2.0×50 mm, 3 μm) (YMC, Inc., Milford, Ma.). The column temperature was maintained at 50° C. and the flow rate was 0.3 mL/minute. The mobile phase A consisted of 10 mM ammonium formate and 0.1% formic acid in water and mobile phase B consisted of 0.1% formic acid in acetonitrile. The initial mobile phase composition was 5% B, and remained at 5% B for one minute to equilibrate the column. The composition was ramped to 95% B over two minutes and held there for one additional minute. The mobile phase was then returned to initial conditions in one minute. Total analysis time was five minutes. A switching valve was used. The eluents between 0-1 minute were diverted to the waste.
The HPLC was interfaced to a Sciex API 4000 mass spectrometer, (Applied Biosystems, Foster City, Calif.) and was equipped with a TurboIonspray ionization source. Ultra high purity nitrogen was used as the nebulizing and turbo gas. The temperature of turbo gas was set at 300° C. and the interface heater was set at 60° C. Data acquisition utilized selected reaction monitoring (SRM). Ions representing the (M+2H)^2+ species for the compound of SEQ ID NO:9, and (M+2H)^2+ for BMS-501143 (IS) were selected in Q1 and were collisionally dissociated with high purity nitrogen at a pressure of 3.5×10^−3torr to form specific product ions which were subsequently monitored by Q3.
The standard curve concentrations, ranging from 1 to 1000 nM and from 4 to 5000 nM, were used for the in vivo samples obtained from low and high doses, respectively. The curves were fitted with a quadratic regression weighted by reciprocal […]. Standards were analyzed in duplicate. Quality control (QC) samples, prepared in blank matrix at the same concentrations as the standard were also analyzed in each analytical set. For the compound of SEQ ID NO:9, the calculated concentrations of more than 80% of the QCs were within 20% of nominal concentration, indicating acceptable assay performance.
The compound of SEQ ID NO:9 plasma concentration vs. time data were analyzed by noncompartmental methods using the […]™ software program. The Cmax and Tmax values were recorded directly from experimental observations. The AUC0-n and AUCtot values were calculated using a combination of linear and log trapezoidal summations. […]

[2] = Exposure during ipGTT in ob/ob mice; settings: sc
Procedure: (§1) Peptides were dissolved in an appropriate vehicle at a concentration in nmol/ml equivalent to the dose that was to be administered in nmol/kg so that each mouse would receive the same volume/weight of dosing solution. Male C57BL/6J-ob/ob mice (10 weeks old) were randomized into groups of 6 mice per group based on fed plasma glucose and body weight. After an overnight fast, mice were weighed and placed in the experimental lab. After 30 min in the environment, the mice were bled via tail tip at −30 min and immediately injected subcutaneously (sc) with vehicle or the peptide dissolved in vehicle (0.1 ml solution/100 g body weight). At time 0 the mice were bled and then injected intraperitoneally with 50% glucose (2 g/kg) to initiate the intraperitoneal glucose tolerance test (ipGTT). The mice were bled 30, 60, 120 and 180 min after the glucose injection. Blood samples were drawn into potassium EDTA, placed on ice during the study and subsequently centrifuged for 10 min at 3000 rpm at 4° C. Plasma samples were diluted 11-fold for glucose analysis in the Cobas System. Another 5 μl plasma sample was diluted 5-fold with 20 μl of Sample Diluent (Insulin ELISA assay kit, Crystal Chem Inc.) and stored at −20° C. for subsequent analysis using the Ultra Sensitive Mouse Insulin ELISA kit (Crystal Chem Inc.).

[3] = tested on: ob/ob mice; experiment: intraperitoneal glucose tolerance test (ipGTT) after sc injection in ob/ob mice (plasma glucose, insulin); settings: for % AUC Reduction in Plasma Glucose in an IP Glucose Tolerance Test after SC Injection of Compound / effect on postprandial plasma glucose (in words): ob/ob mice; for % AUC Reduction in Plasma Glucose in an IP Glucose Tolerance Test after SC Injection of Compound: 10 nmol/kg, vs vehicle group; for effect on postprandial plasma glucose (in words): sc, ipGTT 0-180 or 210 min; for Potency in ob/ob mice, ED50: sc injection, ipGTT, plasma glucose AUC
Procedure: as §1

- AUC [1]: 0.979 µM·h
Compound: CCc1cc(OC)ccc1-c1ccc(C[C@H](NC(=O)[C@H](CC(=O)O)NC(=O)[C@H](CO)NC(=O)[C@@H](NC(=O)[C@](C)(Cc2ccccc2F)NC(=O)[C@@H](NC(=O)CNC(=O)[C@H](Cc2c[nH]cn2)NC(=O)C(C)(C)NC(=O)[C@@H](N)Cc2c[nH]cn2)[C@@H](C)O)[C@@H](C)O)C(=O)N[C@@H](Cc2ccc(-c3ccccc3C)nc2)C(N)=O)cc1 [SEQ ID NO: 150] (H-H[Aib]HGT[αMePhe(2-F)]TSD[Bip(2'-Et-4'-OMe)][Ala(6-(2-MePh)pyridin-3-yl)]-NH2)

- Exposure/dose during ipGTT in ob/ob mice [2]: 22 nM * h/nmol/kg
- Exposure in dogs (sc@67 μg/kg) ([1]; Table I): 0.089 µM·h
- AUC [1]: 0.089 µM·h
Compound: CCc1cc(OC)ccc1-c1ccc(C[C@H](NC(=O)[C@H](CC(=O)O)NC(=O)[C@H](CO)NC(=O)[C@@H](NC(=O)[C@](C)(Cc2ccccc2F)NC(=O)[C@@H](NC(=O)CNC(=O)[C@H](CCC(=O)O)NC(=O)C(C)(C)NC(=O)[C@@H](N)Cc2c[nH]cn2)C(C)O)C(C)O)C(=O)N[C@@H](Cc2ccc(-c3ccccc3C)cc2)C(N)=O)cc1 (some centres unmarked) [Compound I, reference compound] (H-H[Aib]EG[Thr(3ξ)][αMePhe(2-F)][Thr(3ξ)]SD[Bip(2'-Et-4'-OMe)][Bip(2'-Me)]-NH2)
- % AUC Reduction in Plasma Glucose in an IP Glucose Tolerance Test after SC Injection of Compound [3]: −15% (p = 0.247, NS)
- effect on postprandial plasma glucose (in words) [3]: decreasing in a dose-dependent manner
- Potency in ob/ob mice, ED50 [3]: ED50 = 50 nmoles/kg
- Potency in ob/ob mice, ED50 ([3]; listed as compound I): 50 nmol/kg

- AUC [1]: 1.6 µM·h
Compound: CCc1cc(OC)ccc1-c1ccc(C[C@H](NC(=O)[C@H](CC(=O)O)NC(=O)[C@H](CO)NC(=O)[C@@H](NC(=O)C(C)(Cc2ccccc2F)NC(=O)[C@@H](NC(=O)CNC(=O)[C@H](CCC(=O)O)NC(=O)C2(C)CCCN2C(=O)[C@H](Cc2c[nH]cn2)NC(=O)OC)[C@@H](C)O)[C@@H](C)O)C(=O)N[C@@H](Cc2ccc(-c3ccccc3C)nc2)C(N)=O)cc1 (some centres unmarked) [SEQ ID NO: 139] (Moc-H[ξαMeP]EGT[ξαMePhe(2-F)]TSD[Bip(2'-Et-4'-OMe)][Ala(6-(2-MePh)pyridin-3-yl)]-NH2)
- % AUC Reduction in Plasma Glucose in an IP Glucose Tolerance Test after SC Injection of Compound [3]: −63% (p < 0.01)

- AUC [1]: 0.541 µM·h
Compound: CCc1cc(OC)ccc1-c1ccc(C[C@H](NC(=O)[C@H](CC(=O)O)NC(=O)[C@H](CO)NC(=O)[C@@H](NC(=O)[C@](C)(Cc2ccccc2F)NC(=O)[C@@H](NC(=O)CNC(=O)[C@H](CCC(=O)O)NC(=O)C(C)(C)NC(=O)[C@@H](N)Cc2c[nH]cn2)[C@@H](C)O)[C@@H](C)O)C(=O)N[C@@H](Cc2cnc(-c3ccccc3C)nc2)C(N)=O)cc1 [SEQ ID NO: 130] (H-H[Aib]EGT[αMePhe(2-F)]TSD[Bip(2'-Et-4'-OMe)][X2]-NH2)

- AUC [1]: 0.94 µM·h
Compound: CCc1cc(OC)ccc1-c1ccc(C[C@H](NC(=O)[C@H](CC(=O)O)NC(=O)[C@H](CO)NC(=O)[C@@H](NC(=O)[C@](C)(Cc2ccccc2F)NC(=O)[C@@H](NC(=O)CNC(=O)[C@H](CCC(=O)O)NC(=O)[C@@H](C)NC(=O)[C@@H](N)Cc2c[nH]cn2)[C@@H](C)O)[C@@H](C)O)C(=O)N[C@@H](Cc2ccc(-c3ccccc3C)nc2)C(N)=O)cc1 [SEQ ID NO: 149] (H-H[dA]EGT[αMePhe(2-F)]TSD[Bip(2'-Et-4'-OMe)][Ala(6-(2-MePh)pyridin-3-yl)]-NH2)

- AUC [1]: 0.283 µM·h
Compound: CCc1cc(OC)ccc1-c1ccc(C[C@H](NC(=O)[C@H](CC(=O)O)NC(=O)[C@H](CO)NC(=O)[C@@H](NC(=O)[C@](C)(Cc2c(F)cccc2F)NC(=O)[C@@H](NC(=O)CNC(=O)[C@H](CCC(=O)O)NC(=O)[C@]2(C)CCCN2C(=O)[C@H](Cc2c[nH]cn2)NC(=O)OC)[C@@H](C)O)[C@@H](C)O)C(=O)N[C@@H](Cc2ccc(-c3ccccc3C)nc2)C(N)=O)cc1 [SEQ ID NO: 140] (Moc-H[αMeP]EGT[αMePhe(2,6-F2)]TSD[Bip(2'-Et-4'-OMe)][Ala(6-(2-MePh)pyridin-3-yl)]-NH2)

- AUC [1]: 1.26 µM·h
Compound: CCc1cc(OC)ccc1-c1ccc(C[C@H](NC(=O)[C@H](CC(=O)O)NC(=O)[C@H](CO)NC(=O)[C@@H](NC(=O)[C@](C)(Cc2ccccc2F)NC(=O)[C@@H](NC(=O)CNC(=O)[C@H](CCC(=O)O)NC(=O)[C@@H](C)N(C)C(=O)[C@@H](N)Cc2c[nH]cn2)[C@@H](C)O)[C@@H](C)O)C(=O)N[C@@H](Cc2ccc(-c3ccccc3C)nc2)C(N)=O)cc1 [SEQ ID NO: 119] (H-H[dNMeA]EGT[αMePhe(2-F)]TSD[Bip(2'-Et-4'-OMe)][Ala(6-(2-MePh)pyridin-3-yl)]-NH2)

- AUC [1]: 1.12 µM·h
Compound: CCc1cc(OC)ccc1-c1ccc(C[C@H](NC(=O)[C@H](CC(=O)O)NC(=O)[C@H](Cc2c[nH]cn2)NC(=O)[C@@H](NC(=O)[C@](C)(Cc2ccccc2F)NC(=O)[C@@H](NC(=O)CNC(=O)[C@H](CCC(=O)O)NC(=O)[C@]2(C)CCCN2C(=O)[C@@H](N)Cc2c[nH]cn2)[C@@H](C)O)[C@@H](C)O)C(=O)N[C@@H](Cc2ccc(-c3ccccc3C)nc2)C(N)=O)cc1 [SEQ ID NO: 120] (H-H[αMeP]EGT[αMePhe(2-F)]THD[Bip(2'-Et-4'-OMe)][Ala(6-(2-MePh)pyridin-3-yl)]-NH2)

- Exposure/dose during ipGTT in ob/ob mice [2]: 16 nM * h/nmol/kg
Compound: CCc1cc(OC)ccc1-c1ccc(C[C@H](NC(=O)[C@H](CC(=O)O)NC(=O)[C@H](Cc2c[nH]cn2)NC(=O)[C@@H](NC(=O)C(C)(Cc2ccccc2F)NC(=O)[C@@H](NC(=O)CNC(=O)[C@H](CCC(=O)O)NC(=O)C2(C)CCCN2C(=O)[C@@H](O)Cc2c[nH]cn2)[C@@H](C)O)[C@@H](C)O)C(=O)N[C@@H](Cc2ccc(-c3ccccc3C)nc2)C(N)=O)cc1 (some centres unmarked) [SEQ ID NO: 151] ({Lactoyl(3-(imidazol-4-yl))}-[ξαMeP]EGT[ξαMePhe(2-F)]THD[Bip(2'-Et-4'-OMe)][Ala(6-(2-MePh)pyridin-3-yl)]-NH2)
- effect on postprandial plasma glucose (in words) [3]: statistically significant decrease
